Experimental data: patent EP3502102A1, “STING INHIBITORS” (ECOLE POLYTECHNIQUE FEDERALE DE LAUSANNE (EPFL), priority 2017, dated 2019)

Biological target: T1, STING (Mus musculus, UniProt Q3TBT3)
T1 sequence (Q3TBT3 1-378): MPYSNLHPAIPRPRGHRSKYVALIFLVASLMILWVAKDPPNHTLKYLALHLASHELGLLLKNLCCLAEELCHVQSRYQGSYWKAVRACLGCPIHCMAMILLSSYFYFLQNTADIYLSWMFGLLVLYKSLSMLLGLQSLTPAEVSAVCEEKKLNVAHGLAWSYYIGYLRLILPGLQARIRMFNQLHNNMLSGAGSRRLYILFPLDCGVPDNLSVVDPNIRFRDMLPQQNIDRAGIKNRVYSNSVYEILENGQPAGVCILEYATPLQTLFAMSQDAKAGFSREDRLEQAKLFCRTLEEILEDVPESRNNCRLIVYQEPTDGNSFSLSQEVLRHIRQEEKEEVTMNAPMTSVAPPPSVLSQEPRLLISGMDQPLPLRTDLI
Assay: IFN-beta luciferase reporter in HEK293T cells transfected with STING, alone or with a cyclic dinucleotide synthase
Assay type: cell-based
Set-up: expressed in transfected cells; host or cells: HEK293T
Conditions: wild-type HEK293T; STING expressed alone or in conjunction with cdG-Syn; 0.01-5µM; 16 h
Experimental: Reporter activity was measured 16 h after compound treatment. A nonlinear regression analysis was performed. […] Cytokine levels were normalized to DMSO-treated control cells. […] Nuclei were stained with DAPI. […] Depicted genes were measured by RT-qPCR. […] 16 h later Luciferase activity was measured. […] Flag-STING was immunoprecipitated and analysed by autoradiography.
HEK293T cells expressing murine STING with an N-terminal mCherry-tag ^28 were transfected using GeneJuice (Millipore) with a construct encoding for cyclic di-GMP synthase in conjunction with an IFN-• firefly luciferase reporter plasmid. 3 h after transfection cells were seeded in […] (Corning) coated with library compounds. For each compounds, a 40 nl volume was selected to obtain a concentration of 10 µM in the assay plates. The amount of DMSO in each well was normalised to 0.1%. After overnight treatment, cells were lysed in lysis buffer (25 mM Tris-phosphate (pH 7.8), 2 mM DTT, 2 mM 1,2-diaminocyclohexane-N,N,N',N'-tetraacetic acid, 10% glycerol, 1% Triton® X-100) for 20 min followed by the addition of firefly luciferase. Reporter activity was measured using a Tecan Infinite plate reader. The screen was performed using on ∼ 20.000 compounds from a chemically diverse compound collection available at the BSF core facility at EPFL.
In these cells, transient transfection of vectors encoding for cyclic di-GMP synthase (cdG-Syn) and an IFN-• reporter leads to robust induction of firefly luciferase activity. We used this system to perform a high-throughput chemical screen with a library of ∼ 20.000 small molecule compounds (Fig. 6b). To increase the selectivity of candidate compounds against the STING pathway, hits from the primary screen were counter-screened for their effect on RIG-I-driven activation of the IFN-• reporter. […] To further validate the two small molecules, we treated wild-type HEK293T cells with C-178 and C-176, in which STING was either expressed alone or in conjunction with cdG-Syn. […] We next conducted a limited structure-activity relationship (SAR) analysis. Since both C-178 and C-176 share a characteristic nitrofuran moiety, we prepared analogues of C-176/8 in which this structural motif was substituted (Fig. 1c).

O=C(Nc1ccc(I)cc1)c1ccc([N+](=O)[O-])o1 [C-176, N-(4-iodophenyl)-5-nitro-2-furamide]
half-maximal inhibitory concentration (IC50) values, IFN-• reporter activity: nanomolar
